Six molecules from patent publication US20200390850A1, “PEPTIDES AND USES THEREOF” (LATERAL IP PTY LTD, priority 2018, published 2020) can be followed below.

Data set [1] has as its system rats with CFA-induced inflammation. In words: Paw withdrawal threshold in CFA-induced inflammatory (nociceptive) pain. The class given is in vivo, rat. To be noted: 3 mg/kg body weight; at 1 and 2 hours after administration. The procedure:
Briefly, rats were anaesthetized with 3% isoflurane mixed with 97% oxygen. The left paw was injected with 0.05 ml CFA emulsion (F5881, Sigma-Aldrich) in saline (CFA:saline=1:1, vol./vol.). After CFA injection, the animals were returned to their home cages. Regular observations were be carried out to monitor the conditions of the animals after injection.

Data set [2] relates to Chung rats. Put plainly: Paw withdrawal threshold in nerve constriction model of neuropathic pain (Chung model). The class given is in vivo, rat. Particulars: for paw withdrawal threshold of ipsilateral paw: vs vehicle. The protocol: Briefly, adult male Sprague-Dawley rats, 8-9 weeks old, weighing 220-250 g at the time of surgery, were purchased from Charles River UK Ltd.
The animals were housed in groups of 4 in an air-conditioned room on a 12-hour light/dark cycle. Food and water were available ad libitum. They were allowed to acclimatise to the experimental environment for three days by leaving them on a raised metal mesh for at least 40 min. The baseline paw withdrawal threshold (PWT) was examined using a series of graduated von Frey hairs for 3 consecutive days before surgery and re-assessed on the 6th to 8th day after surgery and on the 12th to 14th day after surgery before drug dosing.
Each rat was anaesthetized with 5% isoflurane mixed with oxygen (2 L per min) followed by an intramuscular (i.m.) injection of ketamine 90 mg/kg plus xylazine 10 mg/kg. The back was shaved and sterilized with povidone-iodine. The animal was placed in a prone position and a para-medial incision was made on the skin covering the L4-6 level. The L5 spinal nerve was carefully isolated and tightly ligated with 6/0 silk suture. The wound was then closed in layers after a complete hemostasis. A single dose of antibiotics (Amoxipen, 15 mg/rat, i.p.) was routinely given for prevention of infection after surgery. The animals were placed in a temperature-controlled recovery chamber until fully awake before being returned to their home cages.
The vehicle (1% DMSO in PBS) and LAT8881 (AOD9604, GL449; provided by Lateral Pharma Pty Ltd) was administrated intramuscularly (i.m.) into the leg of the side contralateral to the site of injury. Dosing was carried out by a second experimenter. The rats with validated neuropathic pain state were randomly divided into 5 experimental groups: 1 ml/kg vehicle, 0.1, 0.5, 1 and 5 mg/kg LAT8881.
Each group had 8 animals. The animals were placed in individual Perspex boxes on a raised metal mesh for at least 40 minutes before the test. Starting from the filament of lowest force (about 1 g), each filament was applied perpendicularly to the centre of the ventral surface of the paw until slightly bent for 6 seconds. If the animal withdrew or lifted the paw upon stimulation, then a hair with force immediately lower than that tested was used. If no response was observed, then a hair with force immediately higher was tested. The lowest amount of force required to induce reliable responses (positive in 3 out of 5 trials) was recorded as the value of PWT.
The drug test was carried out on the 12th to 14th day after surgery. PWT were assessed before, 1, 2 and 4 hours following drug or vehicle administration. The animals were rested by being returned to their home cages (about 30-60 min) between two neighbouring testing time points. LAT8881 was administered by a single intramuscular injection (IM) in the ipsilateral limb at a dose of about 0.1 mg/kg body weight to about 5 mg/kg body weight.
LAT9991 was administered by a single intramuscular injection (IM) in the ipsilateral limb at a dose of about 0.1 mg/kg body weight to about 5 mg/kg body weight.
Gabapentin, as a positive control, obtained from Actavis, UK (Lot No. GJ29), was administered orally at 100 mg/2 ml/kg in normal saline. Dosing was carried out by a second experimenter.
Briefly, LAT9991F was administered orally at a dose of about 1 mg/kg body weight to about 5 mg/kg body weight.
Briefly, LAT9991 was administered orally at a dose of about 1 mg/kg body weight, 2 mg/kg body weight and 5 mg/kg body weight.

Data set [3] deals with nerve cells in spinal cord slices. Put plainly: Spontaneous electrical activity in spinal cord slices from Chung model rats. The class given is cell-based, rat. Particulars: 1 μM added to spinal cord slice. The procedure:
Within 2 minutes of addition of 1 μM LATc9991F to the spinal cord slice, this electrical activity was suppressed; * indicates time that LATc9991F was added to the spinal cord slice preparation.
This study was undertaken to assess the effect of LATc9991F (SEQ ID NO:10) on spontaneous electrical activity on spinal cord slices from Chung model rats with confirmed neuropathic pain. LATc9991F is a non-human variant of LAT9991F that is derived from the feline, canine and equine variants of human growth hormone, as described in WO 2013/082667.
Briefly, spinal cord slices were prepared from Chung model rats with confirmed neuropathic pain symptoms, and spontaneous electrical activity was measured as in Example 1. […] Within 2 minutes of addition of LATc9991F to the slice, this electrical activity was suppressed by LATc9991F.

The subject of data set [4] is Lamina I or II neurones. In words: Whole-cell patch clamp on spinal cord slices with intact dorsal root afferents: evoked post-synaptic currents. Type of data set: cell-based, rat. Particulars: comparator; data not shown. The protocol: An in vitro spinal cord slice with intact dorsal root afferents combined with single-cell whole-cell patch clamp electrophysiological recording techniques was used to assess the electrophysiological properties of the peptide having the amino acid sequence of SEQ ID NO:2.
Spinal cord slices were prepared from chronic nerve constriction models of neuropathic pain (Chung models) and tested against the peptide of SEQ ID NO:2.
The spinal nerve ligation model (Chung model) was first reported by Kim and Chung (1992; Pain, 50(3):355-63) and involves a single tight ligation of the L5 spinal nerve. […] This model has been used as a “gold standard’ model for assessing the efficacy of novel compounds targeting neuropathic pain.
Adult male Sprague-Dawley rats, 8-9 weeks old, weighing 220-250 g at the time of surgery, were purchased from Charles River UK Ltd. The animals were housed in groups of 4 in an air-conditioned room on a 12-hour light/dark cycle. […] The baseline paw withdrawal threshold (PWT) was examined using a series of graduated von Frey hairs for 3 consecutive days before surgery and re-assessed on the 6th to 8th day after surgery and on the 12th to 14th day after surgery before drug dosing Each rat was anaesthetized with 5% isoflurane mixed with oxygen (2 L per min) followed by an intramuscular (i.m.) injection of ketamine 90 mg/kg plus xylazine 10 mg/kg. […]
(In general: In patch-clamp work, channel activity is measured electrically.)

The nature of data set [5]: Ex vivo metabolism of LAT8881 in rat whole blood. The class given is in vitro ADME. The protocol: (§1) Human or rat blood was collected into K2EDTA tubes and approximately 2.94 mL of blood was transferred into a polypropylene tube and kept in a water bath at 37° C. […] At the indicated times, approximately 300 μL of the spiked blood sample was transferred into a vial containing 30 μL of OX Protease Inhibitor Cocktail (Sigma Aldrich; Product No. P2714), mixed well and centrifuged at 4° C. The plasma fraction was then collected, transferred into polypropylene tubes and stored at -80° C. […] […] NO:11)) and vortex-mixed with 200 μL of acetonitrile for 5 min at 1500 rpm. The resulting mixture was then centrifuged at 14000 rpm for 5 min and the supernatant was evaporated at 37° C. under a stream of nitrogen to dryness. The residue was reconstituted in 150 μL of reconstitution solution and approximately 150 μL of the reconstituted sample was transferred to a 96 well-plate for injection into the LC-MS system. […] The mobile phase was (a) 5% acetonitrile/water with 0.1% formic acid, and (b) 95% acetonitrile/water with 0.1% formic acid. Eluted peaks were analysed using mass spectrometry. For the analysis of LAT9998 (SEQ ID NO:11), a 5 μL aliquot of each plasma sample was injected into a Shimadzu Nexera UPLC system equipped with a Phenomenex Aeris Peptide XB-C18, 3.6 μm, 150×2.1 mm. The mobile phase was (a) 5% acetonitrile/water with 0.1% formic acid, and (b) 95% acetonitrile/water with 0.1% formic acid. Eluted peaks were analysed using mass spectrometry. Samples were analysed using an AB Sciex QTrap 5500 mass spectrometer with ESI in positive mode. MRM analyses were conducted with Ion Spray (IS) at 5500 V and the Curtain Gas (CUR) was set at 20. Multiple MRM transitions were monitored to ensure the chromatographic peaks observed are from the nominal compound. Results are reported as analyte peak area ratios (normalized versus internal standard peak area).

Data set [6] in a line: Ex vivo metabolism of LAT8881 in human whole blood. Type of data set: in vitro ADME. The procedure: as §1

Positions of bridges follow the written chain, without caps; N, C: chain ends. Residues, ends and D or L forms follow the SMILES beside them.

As to `CN1CC[C@]23c4c5ccc(O)c4O[C@H]2[C@@H](O)C=C[C@H]3[C@H]1C5` [morphine], the “analgesic effect on nociceptive pain (paw withdrawal threshold)” value in data set [1] is “significant analgesic effect”.

For “CRSVEGSCG (listed as Homo sapiens) [LAT9991]”, the “analgesic effect compared with gabapentin at 100 mg/kg body weight orally” value in data set [2] (5 mg/kg body weight PO) is reported as “comparable”. The “analgesic effect compared with gabapentin at 100 mg/kg body weight” value in data set [2] (5 mg/kg body weight i.m.) is “comparable”. Further, in data set [2] (PO), the “effect on the contralateral paw responses” value is reported as “No effect”, the “time after administration within which effect on paw withdrawal threshold was observed” value was no more than 1 h and the “time for which effect on paw withdrawal threshold was maintained” value is recorded as “at least 4 hours”. In addition, the “improvement in paw withdrawal threshold compared with LAT8881” value in data set [2] (PO, vs Example 7) is reported as “comparable”. In data set [2] (i.m.), the “effect on the contralateral paw” value is recorded as “no effect”, the “time after administration within which effect on paw withdrawal threshold was observed” value was no more than 1 h and the “time for which effect on paw withdrawal threshold was maintained” value is “at least 4 hours”. Besides, the “improvement in paw withdrawal threshold compared with LAT8881” value in data set [2] (i.m., vs Example 5) was “comparable”. The “biological activity compared to the parent peptide LAT8881 (magnitude and duration of neuropathic analgesia)” value in data set [2] (nerve constriction model) was “equivalent or substantially equivalent”. In data set [2] (oral gavage 1, 2 and 5 mg/kg body weight), the “paw withdrawal threshold of ipsilateral paw” value is listed as “significant dose-dependent improvement”. The “paw withdrawal threshold of ipsilateral paw” value in data set [2] (single i.m. injection, about 0.1 to 5 mg/kg body weight) is listed as “significant dose-dependent improvement”.

For the molecule “CRRFVESSCA (listed as Canis lupus) [LATc9991F, non-human variant of LAT9991F derived from the feline, canine and equine variants of human growth hormone]”, in data set [3], the “spontaneous electrical activity in nerve cells” value is listed as “suppressed” and the “time after addition within which electrical activity was suppressed” value is no more than 2 min.

Turning to “human growth hormone: human growth hormone, comparator in the spinal cord slice recording”, the “effect on post-synaptic current” value in data set [4] is listed as “no effect”.

Broadly, the half-life is the time needed for the level to fall by half in the phase considered. For the molecule `CC(C)[C@@H]1NC(=O)[C@H](CO)NC(=O)[C@H](CCCNC(=N)N)NC(=O)[C@@H](N)CSSC[C@@H](C(=O)NCC(=O)N[C@@H](Cc2ccccc2)C(=O)O)NC(=O)[C@H](CO)NC(=O)CNC(=O)[C@H](CCC(=O)O)NC1=O` [LAT9991F, CRSVEGSCGF] (H-CRSVEGSCGF-OH; disulfide 1-8; N-terminus and C-terminus assumed), the half-life in data set [5] (rat, blood) was greater than 1 h; in data set [6] (human, blood), greater than 1 h.

For the molecule “CRSVEGSC (listed as Homo sapiens) [LAT9998, metabolite of LAT8881]”, the “Detection of LAT9998 (peak area ratio) in all samples” value in data set [5] and in data set [6] was “LAT9998 peaks were not detectable” in each case.
